Read-outs that look alike come from different tables or passages of the source.
Tests used:
advanced NSCLC = conditions: among thirty-four patients with advanced NSCLC; Johnson, Bekele et al., 2010; cited from earlier work
H2030 NSCLC cell line = conditions: dasatinib, cited from earlier work
[1] = test system: MCF7 breast cancer cell line; conditions: dasatinib, Huang et al. 2007, read-out: GI50 literature; cited from earlier work
H322M NSCLC cell line = conditions: dasatinib, cited from earlier work
[2] = test system: HCC1937 breast cancer cell line; assay: Cellular growth inhibition (CellTiter Glo viability assay); assay type: cell-based; conditions: Homo sapiens, HCC1937, 96 h; read-out: GI50 this paper
[3] = test system: MDA-MB-468 breast cancer cell line; conditions: dasatinib, cited from earlier work
HCC4006 NSCLC cell line = conditions: dasatinib, cited from earlier work
H1648 NSCLC cell line = conditions: dasatinib, cited from earlier work
[4] = test system: MDA-MB-231 breast cancer cell line; conditions: dasatinib, cited from earlier work
H2887 NSCLC cell line = conditions: dasatinib, cited from earlier work
H2172 NSCLC cell line = conditions: dasatinib, cited from earlier work
[5] = test system: MDA-MB-468 breast cancer cell line; assay: Cellular growth inhibition (CellTiter Glo viability assay); assay type: cell-based; conditions: Homo sapiens, MDA-MB-468, 96 h; read-out: GI50 this paper
HCC2279 NSCLC cell line = conditions: dasatinib, cited from earlier work
H322 NSCLC cell line = conditions: dasatinib, cited from earlier work
H1666 NSCLC cell line = conditions: dasatinib, cited from earlier work
H647 NSCLC cell line = conditions: dasatinib, cited from earlier work
H520 NSCLC cell line = conditions: dasatinib, cited from earlier work
[6] = test system: BT-20 breast cancer cell line; assay: Cellular growth inhibition (CellTiter Glo viability assay); assay type: cell-based; conditions: Homo sapiens, BT-20, 96 h; read-out: GI50 this paper
HOP62 NSCLC cell line = conditions: dasatinib, cited from earlier work
H1395 NSCLC cell line = conditions: dasatinib, cited from earlier work
HCC1359 NSCLC cell line = assay: Cellular growth inhibition (CellTiter Glo viability assay); assay type: cell-based; conditions: Homo sapiens, 96 h; read-out: GI50 this paper
23 tested kinases = conditions: IVKA; cited from earlier work
[7] = Sos et al. 2009, read-out: GI50 literature
[8] = Huang et al. 2007, read-out: GI50 literature

Cc1nc(Nc2ncc(C(=O)Nc3c(C)cccc3Cl)s2)cc(N2CCN(CCO)CC2)n1 [dasatinib, N-(2-chloro-6-methylphenyl)-2-[[6-[4-(2-hydroxyethyl)piperazin-1-yl]-2-methylpyrimidin-4-yl]amino]-1,3-thiazole-5-carboxamide]
metabolic responses (advanced NSCLC): eleven | partial response (advanced NSCLC): one | GI50 (H2030 NSCLC cell line; [7]): 118 nM | Sensitivity class (H2030 NSCLC cell line): < 1000 nM | GI50 [1]: > 9520 nM | GI50 (H322M NSCLC cell line; [7]): 81.9 nM | IC50 (H322M NSCLC cell line; read-out: Class): < 1000 nM | GI50 [2]: 82 nM | GI50 [3, 8]: 7130 nM | Sensitivity class [3]: > 1000 nM | GI50 (HCC4006 NSCLC cell line; [7]): 838 nM | IC50 (HCC4006 NSCLC cell line; read-out: Class): < 1000 nM | GI50 (H1648 NSCLC cell line; [7]): 59.3 nM | Class (H1648 NSCLC cell line): < 1000 nM | GI50 [4, 8]: 9.5 nM | Sensitivity class [4]: < 1000 nM | GI50 (H2887 NSCLC cell line; [7]): 11300 nM | IC50 (H2887 NSCLC cell line; read-out: Class): > 1000 nM | GI50 (H2172 NSCLC cell line; [7]): 16700 nM | IC50 (H2172 NSCLC cell line; read-out: Class): > 1000 nM | GI50 [5]: 2800 nM | GI50 (HCC2279 NSCLC cell line; [7]): 139 nM | IC50 (HCC2279 NSCLC cell line; read-out: Class): < 1000 nM | GI50 (H322 NSCLC cell line; [7]): 259 nM | IC50 (H322 NSCLC cell line; read-out: Class): < 1000 nM | GI50 (H1666 NSCLC cell line; [7]): 175 nM | Sensitivity class (H1666 NSCLC cell line): < 1000 nM | GI50 (H647 NSCLC cell line; [7]): 12400 nM | IC50 (H647 NSCLC cell line; read-out: Class): > 1000 nM | GI50 (H520 NSCLC cell line; [7]): 11600 nM | IC50 (H520 NSCLC cell line; read-out: Class): > 1000 nM | GI50 [6]: 497 nM | GI50 (HOP62 NSCLC cell line; [7]): 12800 nM | IC50 (HOP62 NSCLC cell line; read-out: Class): > 1000 nM | GI50 (H1395 NSCLC cell line; [7]): 31100 nM | IC50 (H1395 NSCLC cell line; read-out: Class): > 1000 nM | GI50 (HCC1359 NSCLC cell line): 520 nM

CN1CCN(CCOc2cc(OC3CCOCC3)c3c(Nc4c(Cl)ccc5c4OCO5)ncnc3c2)CC1 [saracatinib, N-(5-Chloro-1,3-benzodioxol-4-yl)-7-[2-(4-methyl-1-piperazinyl)ethoxy]-5-[(tetrahydro-2H-pyran-4-yl)oxy]-4-quinazolinamine]
number of tested kinases submicromolar (23 tested kinases): 13 of 23 tested submicromolar
